# Experimental data: patent US11161876B2, “Anti-inflammatory nanofibers” (Northwestern University, priority 2015, dated 2021)
# Entries after “also recorded” stand apart in the source; their conditions may differ. * marks the point of attachment. C16 alkyl = CCCCCCCCCCCCCCCC*
# Columns and labels:
# CD68+ macrophages = assay: Immunofluorescence quantification of CD68+ macrophages in regenerated bladder tissue; assay type: in vivo, rat
# Method: (§1) Athymic female rats (weighing ˜200 g and 8-10 weeks old; National Cancer Institute Animal Production Program) underwent bladder augmentation (ref. 15; herein incorporated by reference in its entirety). Athymic rats were chosen for this study to solely examine the innate immune response to inflammation without influence of the adaptive immune response. In order to induce anesthesia, animals were given intraperitoneal injections of 60 mg/kg ketamine and 5 mg/kg xylazine. A second injection consisting of Buprenex (1 mg/kg) was administered subcutaneously to alleviate any pain/discomfort during and following surgical procedures. An approximate 1.5 cm midline vertical skin incision was created to expose the abdominal fascia and muscles. This was immediately followed by the separation of the wall leading to the identification of the bladder. An approximate 70% supratrigonal cystectomy was performed from anterior to posterior creating a clamshell. Immediately prior to bladder augmentation procedures, samples of the pro-inflammatory biological scaffold, small intestinal submucosa (SIS (0.5×0.5 cm); Cook Biotech.) (refs. 12,13,16; herein incorporated by reference in their entireties) were thoroughly dip-coated separately in one of the previously described AIF-PAs following gelation procedures. The sections of SIS were dip-coated for approximately 20 seconds and allowed to adhere to the SIS for an additional 30 seconds. Dip-coating procedures were performed at room temperature in air. The cystectomized bladder defect was then augmented with: 1) SIS (non-AIF-PA coated SIS; n=8 animals over both time-points); 2) AIF-PA1 coated SIS (denoted as SIS/AIF-PA1; n=11 animals over both time-points); 3) AIF-PA2 coated SIS (denoted as SIS/AIF-PA2; n=8 animals over both time-points); 4) AIF-PA3 coated SIS (denoted as SIS/AIF-PA3; n=3); 5) AIF-PA4 coated SIS (denoted as SIS/AIF-PA4; n=3 animals); 6) AIF-PA5 coated SIS (denoted as SIS/AIF-PA5; n=3 animals); and 7) AIFC-PA6 coated SIS (denoted as SIS/AIFC-PA6; n=9 animals over both time-points). The bladder was finally covered with omentum after being closed in a watertight manner utilizing 7-0 polyglactin suture. The abdominal wall was then closed in a single layer with 5-0 ethibond running suture and the skin re-approximated with 9 mm autoclips. Each group was sacrificed at 10 day and 5 week time-points.
# (§2) Tissue sections comprised of SIS alone, SIS/AIF-PA1, SIS/AIF-PA2, and SIS/AIF-PA6 augmentations were subjected to immunofluorescence staining by initially undergoing antigen retrieval which consisted of 15 min of boiling in citrate buffer (0.01M citrate solution, pH 6.0 with 0.05% Tween-20) followed by cooling at room temperature for approximately 20 minutes. The antibody staining process consisted of a blocking step for 15 min in bovine serum albumin (BSA, 5 mg/ml) followed by a 40 minutes incubation at room temperature with the primary antibody. After washing with DPBS, slides were incubated for 30 min with a secondary antibody and eventually rinsed with DPBS and air dried. Slides were mounted with Vectashield (Vector Laboratories). Primary antibodies were directed against epitopes for the inflammatory markers CD68 (macrophage) (refs. 18,19; herein incorporated by reference in their entireties) MPO (neutrophil) (ref. 20; herein incorporated by reference in its entirety) or the inflammation-related proteins IL1β, TNFα, IL-10, IL-13, CD206 (M2 macrophage) (refs. 21-25; herein incorporated by reference in their entireties) and CD86 (M1 macrophage) (ref. 26; herein incorporated by reference in its entirety). Antibodies directed against the ECM in regenerating bladder tissue (including COL4A3 and fibronectin) were also utilized. Alexa Red 555 or FITC conjugated secondary antibodies (Molecular Probes) were utilized for visualization (ref. 15; herein incorporated by reference in its entirety). […]
# [1] = system: Rat Bladder Augmentation Model; assay: Bladder tissue collagen quantification (Masson's Trichrome); assay type: in vivo; settings: for mean level of collagen in regenerated bladder tissue: means±SE; for collagen levels, in words: 10 days post-augmentation, compared between groups
# Method: as §1
# Explanted bladder specimens encompassing the entire thickness of the bladder were isolated immediately following euthanasia and processed (ref. 15; herein incorporated by reference in its entirety). Specimens were fixed in a 10% buffered formalin phosphate (Fisher Scientific, Inc.) solution followed by a series of graded ethanol exchanges then embedded in paraffin (Fisher Scientific). Embedded tissues were sectioned onto glass slides at a thickness of 10 μm using a RM2125 RT Microtome (Leica) onto glass slides and subjected to staining with Masson's Trichrome (Sigma-Aldrich Corp.) reagent. The paraffin was removed from tissue containing slides using a hot plate at 62° C. for 6 minutes and was followed by treatment with xylenes, graded ethanol washes and DI water. Slides were placed in Bouin's solution (Sigma-Aldrich Corp.) for approximately 15 min then rinsed under running tap water. The samples were then stained 5 minutes with Hematoxylin and rinsed with running water and subsequently stained with Scarlet-Acid Fuchsin (Sigma-Aldrich Corp.). Slides were rinsed again with DI water and placed into a mixture of PTA/PMA, followed by Aniline Blue solution and a 1% acetic acid wash. Finally, slides were placed in 95-100% ethanol and rinsed in xylene. Following air drying, a coverslip was placed over the specimen sample and secured with Permaslip (Alban Scientific Inc).
# Bladder tissue specimens were evaluated for collagen content (refs. 13,15,17; herein incorporated by reference in their entireties). […]
# CD206+ M2 macrophages = assay: M2 macrophage subtype (CD206) distribution in regenerating bladder tissue; assay type: in vivo, rat; settings: for M2 macrophage levels, in words: 10 days to 5 weeks
# Method: as §1, §2
# IL-1β = IL-1β expression in regenerated bladder tissue (immunofluorescence); assay type: in vivo, rat; settings: for Cytokine expression (shown as percentage of cells staining positive) Pro-inflammatory IL-1β: 5 weeks post-augmentation, means ± SE; for percentage of cells staining positive for IL-1β: 10 days post-augmentation
# Method: as §1, §2
# [2] = system: Rat Bladder Augmentation Model; assay: Urodynamic testing (UDS) of augmented bladders; assay type: in vivo; settings: for intravesical pressure during voiding: post-augmentation
# Method: as §1
# The bladders of anesthetized athymic rats were exposed through the abdomen as previously described. A 20 gauge cannula (Becton Dickinson and Co.) was delicately placed into the bladder through the dome in order to obtain intravesical measurements. The cannula was connected to the Pump 11 Elite Syringe Pump (Harvard Apparatus) and to a physiological pressure transducer (SP844, MEMSCAP). The pressure transducer was connected to a bridge amplifier (Model FE221; AD Instruments). Continuous reading of the transvesical pressure was measured and plotted using LabChart 7.3 software (AD Instruments). The fill rate for each study ranged from 150-200 uL per minute. Bladder capacity was measured by a modified protocol (ref. 13; herein incorporated by reference in its entirety). Sterile DPBS was injected into the bladder using a 27 gauge needle in 50 μl increments until fluid leakage was observed from the urethra of the animal. The total volume injected was then noted. This procedure was repeated at least three times per animal. Urine was evacuated from the bladder prior to the start of any bladder capacity measurements utilizing a sterile 27 gauge needle. Urodynamic and bladder capacity measurements were performed immediately prior to augmentation procedures and immediately prior to euthanization.
# Bladders underwent urodynamic testing (UDS) pre- and post-augmentation. Bladders were gradually filled with sterile saline until a bladder contraction occurred. Bladder pressures rose during the filling until bladder contractions occurred at intravesical pressures of 30-40 cm H2O (FIG. 5, panels A, C, E, and G). […]
# IL-10 = IL-10 expression in regenerated bladder tissue (immunofluorescence); assay type: in vivo, rat; settings: for Cytokine expression (shown as percentage of cells staining positive) Anti-inflammatory IL-10: 5 weeks post-augmentation, means ± SE; for percentage of cells staining positive for IL-10: 10 days post-augmentation
# Method: as §1, §2
# [3] = post-augmentation vs pre-augmentation
Substance,percentage of cells CD68+ (CD68+ macrophages; 5 weeks post-augmentation) [%],mean level of collagen in regenerated bladder tissue ([1]; 5W post-augmentation) [%],mean level of collagen in regenerated bladder tissue ([1]; 10D post-augmentation) [%],number of M2 macrophages (CD206+ M2 macrophages; 5W post-augmentation) [cells/mm^2],number of M2 macrophages (CD206+ M2 macrophages; 10D post-augmentation) [cells/mm^2],Cytokine expression (shown as percentage of cells staining positive) Pro-inflammatory IL-1β (IL-1β) [percentage],percentage of cells staining positive for IL-1β (IL-1β) [%],"intravesical / voiding pressures, in words [2, 3]",Cytokine expression (shown as percentage of cells staining positive) Anti-inflammatory IL-10 (IL-10) [percentage],percentage of cells staining positive for IL-10 (IL-10) [%],percentage of cells CD68+ (CD68+ macrophages; 10 days post-augmentation) [%],"collagen levels, in words [1]","M2 macrophage levels, in words (CD206+ M2 macrophages)",intravesical pressure during voiding [2],"bladder compliance, in words [2, 3]"
"C16-VVVAAAEEEKLMSQKMVD (SEQ ID NO:6) ({C16 alkyl}-VVVAAAEEEKLMSQKMVD-NH2) [SIS/AIFC-PA6, reference compound]",42.0±2.6,68.8±2.7,71.5±1.4,539.3±46.7,842.5±18.9,42.9 ± 1.8,63.3±2.4,unchanged or even slightly elevated; also recorded: failed to decrease intravesical pressures,21.1 ± 2.1,27.8±3.0,,,,,
"C16-VVVAAAEEEMQMKKVLDS (SEQ ID NO:1) ({C16 alkyl}-VVVAAAEEEMQMKKVLDS-NH2) [SIS/AIF-PA1, anti-inflammatory peptide amphiphile, tested dip-coated on small intestinal submucosa (SIS) scaffold]",17.6±1.8,55.0±1.2,59.1±1.1,301.7±23.0,,12.9 ± 2.0,28.2±2.4,decreased intravesical pressures,30.0 ± 1.6,52.0±3.1,33.4±2.0,lesser degrees of collagen,further decreased by 5 weeks,approximately 25 cm H2O,higher bladder compliance; also recorded: increase in compliance
"C16-VVVAAAEEEHDMNKVLDL (SEQ ID NO:2) ({C16 alkyl}-VVVAAAEEEHDMNKVLDL-NH2) [SIS/AIF-PA2, anti-inflammatory peptide amphiphile, tested dip-coated on small intestinal submucosa (SIS) scaffold]",16.5±1.6,58.0±0.6,58.6±0.4,224.7±39.0,,11.5 ± 2.7,21.2±2.4,very modest decrease in bladder intravesical pressure,33.2 ± 2.3,56.2±3.4,23.1±3.3,lesser degrees of collagen,Comparatively low numbers,approximately 35 cm H2O,
